Tests used:
glycoprotein IIb/IIIa = biological target: T1, glycoprotein IIb/IIIa (Rattus norvegicus, UniProt A0A8I6GGN2+Q8R2H2); assay: Glycoprotein IIb/IIIa specific uptake in thrombotic disease model, gamma counter / microSPECT; type: in vivo, rats
T1 construct: a disease model in which a thrombus was formed with glycoprotein IIb/IIIa overexpressed; from tissue; host or cells: in vivo rat carotid artery thrombus (ferric chloride model)
From the text: After 6-week-old rats were anesthetized to make a thrombotic disease model, the carotid artery was secured by opening the skin on the carotid artery side. Then, a filter paper soaked with a 5% ferric chloride solution was exposed on the artery, and then washed three times or more with physiological saline, and the incised skin was sutured again to make a model. […]

[1] = Stability of Tc-99m labeled compound by radioTLC; type: physicochemical; settings: for Eluent A / Eluent B: in % (unit assumed)
Protocol: (§1) After 2.0 mg of GP-104 was dissolved in 1.8 mL of water for injection and 0.2 mL of ethanol, the resulting solution was allowed to stand with a pH of about 5 at room temperature for 10 minutes when 20 μL of SnCl2 (15 mg/mL) and 2 mL of Tc-99m were added thereto, and the reaction was terminated by adjusting the pH to 7 using a NaOH solution. Stability up to 4 hours was confirmed by radioTLC under conditions of pH 5 and pH 7, respectively, and the results are summarized in the following Table 1. (TLC analysis conditions: iTLC was used, Eluent A: methyl ethyl ketone 100%, Eluent B: pyridine:acetic acid:purified water=3:5:15, and purity calculation: Eluent A−Eluent B)
as §1, with “ethanol, pH was adjusted to about 5 and” for “ethanol,”, “stand” for “stand with a pH of about 5”, “(15 mg/mL), 20 μL of cysteine (10” for “(15”, “Table 2.” for “Table 1.”
(§2) After 2.0 mg of GP-105 was dissolved in 1.8 mL of water for injection and 0.2 mL of ethanol, the pH was adjusted to about 5 and the resulting solution was allowed to stand at room temperature for 10 minutes when 20 μL of SnCl2 (15 mg/mL) and 2 mL of Tc-99m were added thereto, and the reaction was terminated by adjusting the pH to 7 using a NaOH solution. Stability until 4 hours under conditions of pH 5 and pH 7 was each confirmed by radioTLC. (TLC analysis conditions: iTLC was used, Eluent A: methyl ethyl ketone 100%, Eluent B: pyridine:acetic acid:purified water=3:5:15, and purity calculation: Eluent A−Eluent B)
as §2, with “ethanol,” for “ethanol, the”, “(15 mg/mL), 20 μL of cysteine (10” for “(15”

[2] = gamma counter, sacrificed at the 2nd hour
[3] = Ex 4-1, no cysteine, pH 5, 0 hour
[4] = Ex 4-1, no cysteine, pH 5, 0.5 hours
[5] = Ex 4-1, no cysteine, pH 5, 1.0 hour
[6] = Ex 4-1, no cysteine, pH 5, 1.5 hours
[7] = Ex 4-1, no cysteine, pH 5, 2.0 hours
[8] = Ex 4-1, no cysteine, pH 5, 3.0 hours
[9] = Ex 4-1, no cysteine, pH 5, 4.0 hours
[10] = Ex 4-1, no cysteine, pH 7, 0 hour
[11] = Ex 4-1, no cysteine, pH 7, 0.5 hours
[12] = Ex 4-1, no cysteine, pH 7, 1.0 hour
[13] = Ex 4-1, no cysteine, pH 7, 1.5 hours
[14] = Ex 4-1, no cysteine, pH 7, 2.0 hours
[15] = Ex 4-1, no cysteine, pH 7, 3.0 hours
[16] = Ex 4-1, no cysteine, pH 7, 4.0 hours
[17] = Ex 4-2, cysteine, pH 5, 0.5 hours
[18] = Ex 4-2, cysteine, pH 5, 1.0 hour
[19] = Ex 4-2, cysteine, pH 5, 1.5 hours
[20] = Ex 4-2, cysteine, pH 5, 2.0 hours
[21] = Ex 4-2, cysteine, pH 5, 3.0 hours
[22] = Ex 4-2, cysteine, pH 5, 4.0 hours
[23] = Ex 4-2, cysteine, pH 7, 0.5 hours
[24] = Ex 4-2, cysteine, pH 7, 1.0 hour
[25] = Ex 4-2, cysteine, pH 7, 1.5 hours
[26] = Ex 4-2, cysteine, pH 7, 2.0 hours
[27] = Ex 4-2, cysteine, pH 7, 3.0 hours
[28] = Ex 4-2, cysteine, pH 7, 4.0 hours

T1 sequence (A0A8I6GGN2 32-1037): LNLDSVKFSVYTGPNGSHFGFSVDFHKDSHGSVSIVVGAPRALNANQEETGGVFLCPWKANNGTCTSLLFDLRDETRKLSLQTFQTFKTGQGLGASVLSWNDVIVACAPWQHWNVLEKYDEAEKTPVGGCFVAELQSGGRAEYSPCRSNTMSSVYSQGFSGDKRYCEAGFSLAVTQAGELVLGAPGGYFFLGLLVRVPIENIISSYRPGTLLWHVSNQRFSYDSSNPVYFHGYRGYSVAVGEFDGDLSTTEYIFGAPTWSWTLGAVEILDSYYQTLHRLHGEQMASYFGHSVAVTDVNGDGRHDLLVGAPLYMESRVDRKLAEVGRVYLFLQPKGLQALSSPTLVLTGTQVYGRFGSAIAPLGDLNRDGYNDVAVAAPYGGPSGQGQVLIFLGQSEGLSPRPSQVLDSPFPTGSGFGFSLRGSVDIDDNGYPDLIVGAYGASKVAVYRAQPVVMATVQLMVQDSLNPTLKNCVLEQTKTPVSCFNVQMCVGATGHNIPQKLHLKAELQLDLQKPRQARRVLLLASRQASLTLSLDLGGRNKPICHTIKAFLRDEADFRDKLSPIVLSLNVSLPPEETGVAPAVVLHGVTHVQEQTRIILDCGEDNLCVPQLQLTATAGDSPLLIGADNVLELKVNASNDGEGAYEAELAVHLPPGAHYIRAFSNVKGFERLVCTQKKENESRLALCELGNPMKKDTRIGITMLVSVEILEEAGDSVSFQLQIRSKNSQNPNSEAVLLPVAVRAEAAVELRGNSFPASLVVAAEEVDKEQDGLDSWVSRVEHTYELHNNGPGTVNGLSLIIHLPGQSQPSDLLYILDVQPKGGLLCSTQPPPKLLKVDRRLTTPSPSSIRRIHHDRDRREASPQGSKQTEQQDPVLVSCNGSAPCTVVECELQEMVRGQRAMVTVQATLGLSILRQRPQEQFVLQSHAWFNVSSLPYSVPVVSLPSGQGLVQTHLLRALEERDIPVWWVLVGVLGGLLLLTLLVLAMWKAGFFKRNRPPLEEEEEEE
T1 sequence (Q8R2H2 26-787): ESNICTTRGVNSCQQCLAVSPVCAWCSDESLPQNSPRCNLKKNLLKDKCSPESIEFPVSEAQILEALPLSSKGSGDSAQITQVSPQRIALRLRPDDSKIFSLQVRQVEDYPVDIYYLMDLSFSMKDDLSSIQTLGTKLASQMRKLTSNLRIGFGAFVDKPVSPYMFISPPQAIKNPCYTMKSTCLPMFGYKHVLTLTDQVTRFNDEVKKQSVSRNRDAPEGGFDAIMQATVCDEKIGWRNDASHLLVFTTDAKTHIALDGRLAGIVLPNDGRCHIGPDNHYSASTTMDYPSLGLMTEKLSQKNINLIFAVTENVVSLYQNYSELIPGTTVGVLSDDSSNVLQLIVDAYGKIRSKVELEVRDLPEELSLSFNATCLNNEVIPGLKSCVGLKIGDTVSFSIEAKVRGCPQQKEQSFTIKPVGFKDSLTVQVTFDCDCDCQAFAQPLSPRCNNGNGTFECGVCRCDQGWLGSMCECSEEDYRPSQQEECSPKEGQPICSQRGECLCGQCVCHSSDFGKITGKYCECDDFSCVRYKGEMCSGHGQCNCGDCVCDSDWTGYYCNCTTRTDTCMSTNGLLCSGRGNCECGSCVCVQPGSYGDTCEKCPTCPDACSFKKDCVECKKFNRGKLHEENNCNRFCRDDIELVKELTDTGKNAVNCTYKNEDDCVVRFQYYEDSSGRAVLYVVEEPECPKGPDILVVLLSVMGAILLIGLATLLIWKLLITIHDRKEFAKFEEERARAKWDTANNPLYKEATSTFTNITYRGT

specific uptake in the disease model (glycoprotein IIb/IIIa): high specific uptake | target to non target ratio (glycoprotein IIb/IIIa; gamma counter, 2nd hour): 2.7 | counts per minute (CPM)/g value, left artery (glycoprotein IIb/IIIa; [2]): 23.5 CPM/g | counts per minute (CPM)/g value, right artery (glycoprotein IIb/IIIa; [2]): 63.9 CPM/g | Purity [1, 3]: 82.93% | Eluent A [1, 3]: 100 | Eluent B [1, 3]: 17.07 | Purity [1, 4]: 72.53% | Eluent A [1, 4]: 95.67 | Eluent B [1, 4]: 23.14 | Purity [1, 5]: 73.13% | Eluent A [1, 5]: 97.07 | Eluent B [1, 5]: 23.94 | Purity [1, 6]: 71.23% | Eluent A [1, 6]: 94.54 | Eluent B [1, 6]: 23.31 | Purity [1, 7]: 60.81% | Eluent A [1, 7]: 93.25 | Eluent B [1, 7]: 32.44 | Purity [1, 8]: 60.99% | Eluent A [1, 8]: 80.67 | Eluent B [1, 8]: 19.68 | Purity [1, 9]: 57.11% | Eluent A [1, 9]: 82.64 | Eluent B [1, 9]: 25.53 | Purity [1, 10]: 82.93% | Eluent A [1, 10]: 100 | Eluent B [1, 10]: 17.07 | Purity [1, 11]: 65.63% | Eluent A [1, 11]: 90.76 | Eluent B [1, 11]: 25.13 | Purity [1, 12]: 60.37% | Eluent A [1, 12]: 85.38 | Eluent B [1, 12]: 25.01 | Purity [1, 13]: 58.73% | Eluent A [1, 13]: 95.97 | Eluent B [1, 13]: 37.24 | Purity [1, 14]: 54.3% | Eluent A [1, 14]: 96.17 | Eluent B [1, 14]: 41.87 | Purity [1, 15]: 54.12% | Eluent A [1, 15]: 94 | Eluent B [1, 15]: 39.88 | Purity [1, 16]: 40.17% | Eluent A [1, 16]: 85.5 | Eluent B [1, 16]: 45.33 | Purity ([1]; Ex 4-2, cysteine, pH 5, 0 hour): 82.93% | Eluent A ([1]; Ex 4-2, cysteine, pH 5, 0 hour): 100 | Eluent B ([1]; Ex 4-2, cysteine, pH 5, 0 hour): 17.07 | Purity [1, 17]: 92.37% | Eluent A [1, 17]: 100 | Eluent B [1, 17]: 7.63 | Purity [1, 18]: 76.25% | Eluent A [1, 18]: 89.07 | Eluent B [1, 18]: 12.82 | Purity [1, 19]: 87.74% | Eluent A [1, 19]: 100 | Eluent B [1, 19]: 12.26 | Purity [1, 20]: 38.64% | Eluent A [1, 20]: 57.3 | Eluent B [1, 20]: 18.66 | Purity [1, 21]: 77.6% | Eluent A [1, 21]: 97.4 | Eluent B [1, 21]: 19.8 | Purity [1, 22]: 76.51% | Eluent A [1, 22]: 98.31 | Eluent B [1, 22]: 21.8 | Purity ([1]; Ex 4-2, cysteine, pH 7, 0 hour): 90.38% | Eluent A ([1]; Ex 4-2, cysteine, pH 7, 0 hour): 100 | Eluent B ([1]; Ex 4-2, cysteine, pH 7, 0 hour): 9.62 | Purity [1, 23]: 92.28% | Eluent A [1, 23]: 98.65 | Eluent B [1, 23]: 6.37 | Purity [1, 24]: 85.19% | Eluent A [1, 24]: 98.4 | Eluent B [1, 24]: 13.21 | Purity [1, 25]: 91.63% | Eluent A [1, 25]: 97.22 | Eluent B [1, 25]: 5.59 | Purity [1, 26]: 89.39% | Eluent A [1, 26]: 95.62 | Eluent B [1, 26]: 6.23 | Purity [1, 27]: 90.09% | Eluent A [1, 27]: 100 | Eluent B [1, 27]: 9.91 | Purity [1, 28]: 96.79% | Eluent A [1, 28]: 100 | Eluent B [1, 28]: 3.21 | Purity ([1]; addition of cysteine, pH of 5 (Table 8)): ≥ 70% | Purity ([1]; addition of cysteine, pH of 7 (Table 8)): ≥ 90% | maximum purity ([1]; no cysteine, pH 5 and pH 7 (text to Table 7)): 82.93%
Compound: O=C(O)C[C@H](NC(=O)[C@@H]1CCCN(C(=O)CCC2CCNCC2)C1)c1cncc(OCCNC(=O)CN2CC(=O)[O][99Tc-]3([O]C(=O)C2)[O]C(=O)CN(CC(=O)NCCOc2cncc([C@H](CC(=O)O)NC(=O)[C@@H]4CCCN(C(=O)CCC5CCNCC5)C4)c2)CC(=O)[O]3)c1 [[Tc-99m]GP-105]
background radioactivity excretion (glycoprotein IIb/IIIa; microSPECT until 4 hours): quick background radioactivity excretion effect
